Assay results reported in article PMC2942996 (Journal of molecular biology, 2010).

Tests used:
[1] = biological target: isoprene synthase (PcISPS) (Populus tremula x Populus alba, UniProt Q9AR86, C533W/K308R/N59D); experiment: competitive inhibition of isoprene formation, SBSE GC-MS assay; type: biochemical
[2] = substrate: CC(C)=CCOP(=O)(O)OP(=O)(O)O; experiment: enzyme kinetics; type: biochemical, Populus tremula x Populus alba; conditions: Mg2+ active site

Molecule	Ki [1]	Km [2]
CC(C)=CCC/C(C)=C/COP(=O)(O)OP(=O)(O)O [GPP, geranyl diphosphate]	550 µM	–
isoprene synthase (PcISPS) (Populus tremula x Populus alba; C533W/K308R/N59D) (protein) EARRSADYEPNSWDYDFLLSSDTDESIEVYKDKAKKLEAEVRREINNEKAEFLTLLELIDNVQRLGLGYRFESDIRRALDRFVSSGGFDGVTKTSLHATALSFRLLRQHGFEVSQEAFSGFKDQNGNFLENLKEDTKAILSLYEASFLALEGENILDEARVFAISHLKELSEEKIGKELAEQVNHALELPLHRRTQRLEAVWSIEAYRKKEDANQVLLELAILDYNMIQSVYQRDLRETSRWWRRVGLATKLHFARDRLIESFYWAVGVAFEPQYSDCRNSVAKMFSFVTIIDDIYDVYGTLDELELFTDAVERWDVNAINDLPDYMKLCFLALYNTINEIAYDNLKDKGENILPYLTKAWADLCNAFLQEAKWLYNKSTPTFDDYFGNAWKSSSGPLQLIFAYFAVVQNIKKEEIENLQKYHDIISRPSHIFRLCNDLASASAEIARGETANSVSCYMRTKGISEELATESVMNLIDETWKKMNKEKLGGSLFAKPFVETAINLARQSHCTYHNGDAHTSPDELTRKRVLSVITEPILPFER	–	3000 µM
